Legend:
HCV genotype 2A = assay: HCV focus-forming assay (FFA); assay type: cell-based; settings: Hepatitis C virus
Method: (§1) Chemical analogs of KIN500 are tested for in vitro antiviral activity against HCV genotype 2A and influenza A virus (A/WSN/33). Viral protein and RNA levels are assessed following drug treatment using the assays described above.

[1] = test system: influenza A virus (A/WSN/33); assay: microbe, parasite or virus in culture; assay type: cell-based
Method: as §1

ISG expression = ISG expression enhancement; assay type: cell-based
[2] = test system: Murine Encephalomyocarditis virus (EMCV); assay: EMCV antiviral assay (MTS cell viability); assay type: cell-based; settings: Huh7 cells, EMCV 250 pfu, 18 h post-infection

COc1ccc(NC(=O)Cn2c(=O)n(Cc3ccco3)c(=O)c3sc4ccccc4c32)c(OC)c1 [KIN500, 2-[3-(furan-2-ylmethyl)-2,4-dioxo-3,4-dihydro[1]benzothieno[3,2-d]pyrimidin-1(2H)-yl]-N-(2,4-methoxyphenyl)acetamide]
IC50 (HCV genotype 2A): 19.1 µM
Therapeutic index (TI) (CC50/IC50) ([1]; CC50/IC50): 11
IC50 ([1]; Influenza A virus, WSN, read-out: Influenza nucleoprotein (NP) ELISA (IC50)): 4.6 µM
enhancement of ISG expression (ISG expression): 18 fold
Cell viability post-infection ([2]; 5 μM): ~0.75
Cell viability post-infection ([2]; 10 μM): ~1.0
Cell viability post-infection ([2]; 20 μM): ~1.05
CC50 (in vitro): > 50 µM
